{
  "source": "patent US6841236B2",
  "about": "“Articles containing thioxanthone dyes” (3M Innovative Properties Co., priority 2001, dated 2005)",
  "type_in_all_cases": "physicochemical",
  "key": {"[1]": {"assay": "Dye concentration in saturated acetone solution at room temperature", "settings": "72 hours at RT, 0.45 micron PTFE filtered, absorbance at 535 nm", "procedure": "Examples 4-7 were prepared by placing 60-100 mg of each of the compounds of Examples 1-3 and 6-methoxy-14H-anthra(2,1,9-mna)thioxanthene-14-one (described by Carlini et al.) in a vial with 5.0 ml acetone. […] Each vial was hand shaken and the solution was filtered using a 0.45 micron polytetrafluoroethylene (PTFE) filter commercially available from VWR Scientific Products, West Chester, Pa. under the trade designation “Acrodisc 13CR PTFE”.\nThe amount of fluorescent dye in the saturated acetone solution was determined by measuring the major dye absorption band at 535 nm using a UV-Vis Spectrophotometer commercially available from Shimadzu Scientific Instruments, Inc., Columbia, Md. under the trade designation “Shimadzu model UV-2401PC”. Dye concentrations were calculated by measuring the absorbance of the saturated acetone solution, and then diluting that solution until absorbance of the resulting solution was below 3. The dyes were assumed to have equal absorbance per mole. Using the dilution and an absorbance coefficient of 16,100 A/mol/L (coefficient obtained in acetone for the dye of Example 3) and assuming a Beer's Law relationship, the concentration of dye in each saturated solution was calculated and is set out in TABLE I"}, "[2]": {"assay": "Daytime color of polycarbonate sheet with dye laminated to retroreflective sheeting (Labsphere BFC-450 Bispectral Colorimeter)", "settings": "0.2% dye in polycarbonate FCR-2407, 0.1 mm sheet on Scotchlite 3970; CIE D65, CIE 1931 observer", "procedure": "Examples 8-10 were prepared with the compounds of Examples 1 and 2 and 6-methoxy-14H-anthra(2,1,9-mna)thioxanthene-14-one at a 0.2% loading in polycarbonate FCR-2407. Extrusion conditions for the polycarbonate were 260-304° C. using a single screw extruder. Optically transparent pressure sensitive adhesive with a liner on both sides of the adhesive was laminated to the 0.1 mm thick sheet of polycarbonate by removing one of the liners from the adhesive and then applying the exposed adhesive to the polycarbonate sheet with two passes of a roller using hand pressure.\nThe remaining liner was removed from the adhesive and the polycarbonate sheet construction was laminated to retroreflective sheeting commercially available from 3M under the trade designation “Scotchlite Diamond Grade LDP Reflective Sheeting Series 3970” (Scotchlite 3970) with two passes of a roller using hand pressure. The Scotchlite 3970 reflective sheeting had previously been laminated to a 7 cm wide by 28 cm long aluminum panel (6061T6 alloy with etch and desmut surface from Q Panel Company, Cleveland, Ohio) with two passes of a roller with hand pressure.\n(§1) The daytime color of each article was measured using a Labsphere BFC-450 Bispectral Colorimeter commercially available from Labsphere, North Sutton, N.H. The daytime chromaticity (x,y), total luminance factor (YT), and fluorescence luminance factor (YF; which is a measure of the fluorescent properties of the article) calculated for the CIE D65 and the CIE 1931 observer are provided in TABLE II"}, "[3]": {"assay": "Daytime color and visual inspection of PMMA film with dye laminated to retroreflective sheeting", "procedure": "as §1\nExamples 11-16 were prepared with the compounds of Examples 1-2 and 6-methoxy-14H-anthra(2,1,9-mna)thioxanthene-14-one in polymethylmethacrylate (PMMA) resin at the wt.-% of dye shown in TABLE III. The samples were prepared by dry blending the dye with a medium impact modified grade PMMA resin commercially available from Ineos Acrylics Inc., Cordova, Tenn. under the trade designation “CP923”. Films of 0.1 mm thickness were extruded through a single screw extruder with three heating zones set at 249° C. to 260° C. […] Examples 11 and 12 and Examples 13 and 14 had equal molar loadings of dye.\nThe resultant films were laminated to Scotchlite 3970 reflective sheeting on aluminum panels as described in Examples 8-10. Color values were measured as described in Examples 8-10 and the results set out in TABLE III."}, "[4]": {"assay": "Daytime color of Paraloid B66 dye coating on retroreflective sheeting", "procedure": "as §1\nExamples 19-21 were prepared by independently stirring 0.10 parts of the dyes of Examples 1 and 3 and 6-methoxy-14H-anthra(2,1,9-mna)thioxanthene-14-one in a clear vehicle solution of 64.8 parts Dowanol DPMA and 38.2 parts Paraloid B66.\nThe fluorescent dye solutions were coated on Scotchlite 3970 reflective sheeting using a #16 wire wound bar. The coating was air dried for 5 minutes and then dried in a 120° C. oven for 45 minutes. Color values were measured as described in Examples 8-10 and the results set out in TABLE V."}, "[5]": {"assay": "Daytime color of copolyester film with dye laminated to retroreflective sheeting", "settings": "dye 0.2 wt.-% in copolyester resin, 0.1 mm film on Scotchlite 3970", "procedure": "as §1\nExamples 17-18 were prepared as described in Examples 8-10, except that the dyes of Examples 1 and 2 at a 0.2 wt.-% loading were independently incorporated into a copolyester resin. The copolyester resin was prepared using terephthalic and isophthalic acid in an 80/20 ratio and ethylene glycol in the conventional manner and analogous to the production of polyethylene terephthalate according to the method described in Macromolecular Syntheses, A Periodic Publication of Methods for the Preparation of Macromolecules, Collective Volume I, 1977, J. A. Moore, Editor, (John Wiley & Sons, New York; 1978);p. 17-21. The extrusion conditions for the copolyester were 254-260° C. using a single screw extruder and the resultant film thickness was 0.1 mm.\nThe resultant films were laminated to Scotchlite 3970 reflective sheeting on aluminum panels as described in Examples 8-10. Color values were measured as described in Examples 8-10 and the results set out in TABLE IV."}, "[6]": {"settings": "dye 0.2 wt-% in PMMA CP923, 0.1 mm film on Scotchlite 3970"}, "[7]": {"settings": "dye 0.38 wt-% in PMMA CP923, 0.1 mm film on Scotchlite 3970"}, "[8]": {"settings": "dye 1.27 wt-% in PMMA CP923, 0.1 mm film on Scotchlite 3970"}, "[9]": {"settings": "0.10 parts dye in 64.8 parts Dowanol DPMA and 38.2 parts Paraloid B66, coated on Scotchlite 3970 with #16 wire wound bar, dried"}},
  "data": [
    {"smiles": "CCCCCCCCOc1cc2c3ccccc3c(=O)c3ccc4c5ccccc5sc1c4c32", "note": "[Example 1, 6-n-Octyloxy-14H-anthra(2,1,9mna)thioxanthene-14-one]", "values": [
      {"measurement": "Dye Concentration in Acetone at RT", "setting": "[1]", "result": 0.19, "unit": "mg/mL"},
      {"measurement": "YF (fluorescence luminance factor)", "setting": "[2]", "result": 14.6},
      {"measurement": "YT (total luminance factor)", "setting": "[2]", "result": 32.87},
      {"measurement": "x (daytime chromaticity)", "setting": "[2]", "result": 0.5232},
      {"measurement": "y (daytime chromaticity)", "setting": "[2]", "result": 0.3132},
      {"measurement": "fluorescence relative to articles with the 6-methoxy dye", "setting": "[3]; PMMA films, equal molar loadings of dye, by fluorescence luminance factor", "result": "higher fluorescence"},
      {"measurement": "X (daytime chromaticity)", "setting": "[3]; [6]", "result": 0.5210},
      {"measurement": "YF (fluorescence luminance factor)", "setting": "[3]; [6]", "result": 16.83},
      {"measurement": "YT (total luminance factor)", "setting": "[3]; [6]", "result": 30.85},
      {"measurement": "y (daytime chromaticity)", "setting": "[3]; [6]", "result": 0.3252},
      {"measurement": "X (daytime chromaticity)", "setting": "[3]; [7]", "result": 0.5923},
      {"measurement": "YF (fluorescence luminance factor)", "setting": "[3]; [7]", "result": 13.74},
      {"measurement": "YT (total luminance factor)", "setting": "[3]; [7]", "result": 19.96},
      {"measurement": "y (daytime chromaticity)", "setting": "[3]; [7]", "result": 0.3022},
      {"measurement": "X (daytime chromaticity)", "setting": "[3]; [8]", "result": 0.6305},
      {"measurement": "YF (fluorescence luminance factor)", "setting": "[3]; [8]", "result": 4.97},
      {"measurement": "YT (total luminance factor)", "setting": "[3]; [8]", "result": 7.80},
      {"measurement": "y (daytime chromaticity)", "setting": "[3]; [8]", "result": 0.3008},
      {"measurement": "visual inspection of film for undissolved dye", "setting": "[3]; extruded PMMA CP923 film 0.1 mm, 6-methoxy dye at 1 wt.-%, dyes of Examples 1-2 at up to 1.27 wt-%", "result": "uniform appearance with no undissolved dye seen"},
      {"measurement": "YF (fluorescence luminance factor)", "setting": "[4]; [9]", "result": 11.09},
      {"measurement": "YT (total luminance factor)", "setting": "[4]; [9]", "result": 30.10},
      {"measurement": "x (daytime chromaticity)", "setting": "[4]; [9]", "result": 0.4381},
      {"measurement": "y (daytime chromaticity)", "setting": "[4]; [9]", "result": 0.2980},
      {"measurement": "appearance of coated article", "setting": "[4]; dye in Paraloid B66 coating on Scotchlite 3970", "result": "bright fluorescent pink appearance"},
      {"measurement": "YF (fluorescence luminance factor)", "setting": "[5]", "result": 11.70},
      {"measurement": "YT (total luminance factor)", "setting": "[5]", "result": 22.83},
      {"measurement": "x (daytime chromaticity)", "setting": "[5]", "result": 0.5429},
      {"measurement": "y (daytime chromaticity)", "setting": "[5]", "result": 0.3056}
    ]}
  ]
}
